Several values for one entry are separate records, joined by “and”; a condition that tells them apart may be missing. Equal entries are not always repeated. Where two headings read alike, the source gives them in different places.
Assays:
[1] = biological target: Sigma-1 Receptor (S1R) (Homo sapiens (Human), UniProt Q99720); assay: In-vitro binding assay, Sigma-1 receptor; conditions: for S1R fold selectivity (S2R/S1R): ratio S2R Ki/S1R Ki
Description: (§1) In-vitro binding assays performed at Eurofins Panlabs Taiwan, Ltd. Specific ligand binding was determined in the presence of an excess of unlabelled ligand.

[2] = tested on: B104 neuroblastoma cells; assay: BDNF release from B104 cells, in-situ ELISA; assay type: cell-based, rat; conditions: 5 days, vs untreated control
[3] = tested on: Male Sprague-Dawley rats; conditions: 30 mg/kg p.o., 30 min and 120 min after administration
Description: Male Sprague-Dawley rats (270-400 g bodyweight) were housed in groups of two in a temperature (20±2° C.) and humidity (50-60%) controlled colony room under a non-reversed 12 (6-18 on)/12 h light-dark cycle with food and water ad libitum except during the actual experiments. 4 rats were used for each drug dose and the vehicle-treated control group.
USV was recorded by a microphone and processed by an interface to select USV signals and to digitize the resulting signals for automatic processing. In the priming phase, each rat was placed in the test chamber. After a 2 min time period, a series of at most ten shocks (trials), 1.8 mA for 0.3 s, separated by 20 s shock-free intervals, was delivered via the grid floor of the test chamber. In the shock-free intervals the occurrence of ultrasonic vocalization (22±5 kHz) was automatically recorded, and the duration of ultrasonic vocalization was calculated immediately. The priming session was terminated either when the rat constantly vocalized at least for 10 s on three consecutive trials or after the tenth trial. Rats not responding with USV on three consecutive trials were excluded from the test. In the actual test performed on the next day, each rat received 5 initial shocks (1.8 mA for 0.3 s, separated by 20 s shock-free intervals) in the test chamber, and the duration of USV (22+4 kHz) was recorded during the following 3 min period.

[4] = tested on: YAC128 HD mice; conditions: early treatment from 1.5 months, 30 mg/kg
Description: (§2) Animals. […] Mice were bred at the Biological Resource Centre (Agency for Science, Technology and Research, ASTAR), and group-housed with littermates of mixed genotype. Animals were maintained under a 12-h light cycle (lights on at 09:00) in a clean facility, and given free access to food and water. Experiments were performed with the approval of the Institutional Animal Care and Use Committee at the Biomedical Sciences Institute (ASTAR) and in accordance with their approved guidelines.
(§3) Animals were weighed every two weeks to ensure the correct dose was maintained.
(§4) Mice were divided into three groups. […] One cohort was behaviorally tested every two months commencing at 2 months of age. Mice were tested for psychiatric function (open field, elevated plus maze, and forced swim test). Tests were conducted at a set time during the day, prior to drug administration.
Anxiety-like behavioral tests. The open-field (OF) and elevated plus maze (EPM) tests are used to assess anxiety-like behavioral in rodents. The time spent in the center of the arena in the OF and the time spent in the open arms of the maze in the EPM are considered measures of anxiety-like behavior.

[5] = tested on: rodents exhibiting symptoms of anxiety; conditions: periodic administration, paper example
[6] = tested on: patient diagnosed with anxiety or depression; conditions: periodic administration, intravenous or oral, paper example
[7] = tested on: Sprague-Dawley male rats; conditions: FST day 8
Description: On day 8, rats were again placed in a water tank, and time spent immobile measured.
Sprague-Dawley male rats, 6 weeks old were used. Rats were pre-tested on day 1 to ensure stable and high duration of immobility during the 5-min test session.

[8] = tested on: YAC128 HD mice
Description: as §2, §3, §4

[9] = biological target: Sigma-2 receptor (S2R) (Homo sapiens (Human), UniProt Q5BJF2); assay: In-vitro binding assay, Sigma-2 receptor; conditions: Cheng Prusoff equation
Sequence of Sigma-2 receptor (S2R) (Q5BJF2 whole entry, species assumed): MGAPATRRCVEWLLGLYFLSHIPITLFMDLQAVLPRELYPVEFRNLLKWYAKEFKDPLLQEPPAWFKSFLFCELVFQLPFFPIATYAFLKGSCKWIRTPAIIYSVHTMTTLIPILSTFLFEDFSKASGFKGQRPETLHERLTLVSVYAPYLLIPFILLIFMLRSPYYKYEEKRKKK
Description: as §1

[10] = tested on: HD patients; conditions: 45 mg bid
Description: PBA-S includes behavioral assessments of depressed mood, anxiety, apathy and irritability.
The lack of initiative subscale of the PBA-S is a measure of apathy in HD patients. Apathy is a symptom common to HD and depression.
The Problem Behaviors Assessment-Short (PBA-s) scale, is a measure of psychiatric symptoms including anxiety, depression and apathy. The PBA-s is an interview designed specifically for rating the severity and frequency of behavioral abnormalities in HD. PBA-S includes behavioral assessments of depressed mood, anxiety, apathy and irritability. This scale is widely used in HD clinical trials and recommended as a measure of screening behavioral symptoms, including depression and anxiety. […] The lack of initiative subscale of the PBA-S is a measure of apathy in HD patients. Apathy is a symptom common to HD and depression.

[11] = tested on: Male NMRI mice; conditions: 30 min before test
Description: Animals were assigned according to the experimental plan to one of the 4 test boxes run simultaneously.
The number of marbles covered by sawdust were counted. The experimenter also observed the animals for obvious inhibition of general activity (locomotor activity).

[12] = biological target: D2Rs (Homo sapiens (Human), UniProt P14416); conditions: cited from earlier work
Sequence of D2Rs (P14416 whole entry): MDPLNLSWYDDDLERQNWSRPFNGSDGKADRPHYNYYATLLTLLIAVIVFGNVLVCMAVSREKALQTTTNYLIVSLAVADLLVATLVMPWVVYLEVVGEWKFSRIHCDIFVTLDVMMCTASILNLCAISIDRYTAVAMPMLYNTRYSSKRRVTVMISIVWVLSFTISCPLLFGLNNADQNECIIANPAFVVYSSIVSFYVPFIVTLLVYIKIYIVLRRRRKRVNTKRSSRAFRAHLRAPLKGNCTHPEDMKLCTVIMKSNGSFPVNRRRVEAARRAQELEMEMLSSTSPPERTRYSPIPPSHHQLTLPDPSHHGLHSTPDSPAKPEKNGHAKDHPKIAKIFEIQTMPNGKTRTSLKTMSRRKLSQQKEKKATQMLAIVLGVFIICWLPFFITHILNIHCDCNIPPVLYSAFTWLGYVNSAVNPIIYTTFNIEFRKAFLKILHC

[13] = biological target: D3Rs (Homo sapiens (Human), UniProt P35462); conditions: cited from earlier work
Sequence of D3Rs (P35462 whole entry): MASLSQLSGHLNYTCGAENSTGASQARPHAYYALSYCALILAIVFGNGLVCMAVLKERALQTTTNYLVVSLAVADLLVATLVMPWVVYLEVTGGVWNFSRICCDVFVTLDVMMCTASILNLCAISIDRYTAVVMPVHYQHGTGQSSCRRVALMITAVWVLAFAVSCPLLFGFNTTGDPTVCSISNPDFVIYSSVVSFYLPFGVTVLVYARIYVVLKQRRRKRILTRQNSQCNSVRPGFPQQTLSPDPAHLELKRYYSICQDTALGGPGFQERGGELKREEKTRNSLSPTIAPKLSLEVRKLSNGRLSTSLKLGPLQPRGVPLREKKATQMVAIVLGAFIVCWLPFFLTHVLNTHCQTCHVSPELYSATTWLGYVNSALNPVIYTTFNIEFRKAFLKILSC

Sequence of Sigma-1 Receptor (S1R) (Q99720 whole entry, species assumed): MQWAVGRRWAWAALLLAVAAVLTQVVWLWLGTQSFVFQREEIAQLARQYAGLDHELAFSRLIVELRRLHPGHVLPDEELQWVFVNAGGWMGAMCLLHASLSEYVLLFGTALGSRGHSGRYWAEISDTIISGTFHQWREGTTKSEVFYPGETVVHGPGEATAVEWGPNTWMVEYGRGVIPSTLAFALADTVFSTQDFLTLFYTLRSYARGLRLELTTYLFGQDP

SMILES: CCCN1CCC(O)(c2cccc(S(C)(=O)=O)c2)CC1 [Compound 1]
- S1R fold selectivity (S2R/S1R) [1]: >270 fold
- increase in BDNF secretion ([2]; Compound 1 1 μM alone): 12.5%

SMILES: CCCN1CC[C@@H](c2cccc(S(C)(=O)=O)c2)[C@@H](O)C1 [Compound 4]
- S1R fold selectivity (S2R/S1R) [1]: >35 fold
- change in BDNF secretion ([2]; Compound 4 0.001 μM alone): −1.5%

SMILES: CCCN1CCC(c2cccc(S(C)(=O)=O)c2)CC1 [Pridopidine, 4-[3-(methylsulfonyl)phenyl]-1-propyl-piperidine]
- effect on USV duration [3]: significantly inhibited USV
- time spent in the center of the arena (open field) ([4]; tested at 6 months): increased the time spent in the center of the arena
- time spent in the open arms (elevated plus maze) ([4]; tested at 8 months): decreased anxiety-like behavior
- efficacy in treating anxiety [5]: effective in treating anxiety
- efficacy in treating patient with anxiety or depression [6]: effective in treating the patient
- decrease in immobility time ([7]; 3 mg/kg oral gavage daily for 7 days): 38%
- decrease in immobility time ([7]; 15 mg/kg oral gavage daily for 7 days): 58%
- Ki ([1]; Cheng Prusoff equation): 0.057 µM
- time spent immobile in forced swim test ([8]; early treatment from 1.5 months, 30 mg/kg, 12 months of age): reduced the time spent immobile
- depressive-like behavior, immobility time in forced swim test ([8]; late (manifest) treatment from 8 months, escalating to 30 mg/kg oral gavage): significantly improves depressive-like phenotype
- Ki [9]: 5.45 µM
- PBA-S change from baseline vs placebo ([10]; week 52, p=0.0603): −2.13 units
- PBA-S lack of initiative measure, change from baseline vs placebo ([10]; week 52, p=0.0704): −1.27 units
- increase in BDNF secretion ([2]; pridopidine 0.001 μM alone): 13.6% and 13.5%
- increase in BDNF secretion ([2]; pridopidine 0.005 μM alone): 26%
- increase in BDNF secretion ([2]; pridopidine 0.01 μM alone): 3.4%
- inhibition of marble-burying ([11]; 1 mg/kg p.o.): 8%
- inhibition of marble-burying ([11]; 3 mg/kg p.o.): 49%
- inhibition of marble-burying ([11]; 10 mg/kg p.o.): 62%
- inhibition of marble-burying ([11]; 30 mg/kg p.o.): 73%
- higher affinity towards the S1R vs D2Rs [12]: ~500 fold
- higher affinity towards the S1R vs D3Rs [13]: ~30 fold

From patent US20230390272A1 (PRILENIA NEUROTHERAPEUTICS LTD., priority 2020, published 2023)
